The record followed here is patent publication US8618289B2 (Ambit Biosciences Corporation, priority 2008, dated 2013).

Like-named read-outs stand apart in the source and are kept apart here.

In assay [1] the test system is 290 distinct kinases tested excluding mutant variants (321 in the larger panel).
Experimental: Competition binding assays used herein were developed, validated and performed as described in Fabian et al., Nature Biotechnology 2005, 23, 329-336. […] The liganded beads were blocked with excess biotin and washed with blocking buffer (SeaBlock (Pierce), 1% BSA, 0.05% Tween 20, 1 mM DTT) to remove unbound ligand and to reduce non-specific binding. […] Test compounds were prepared as 100× stocks in DMSO and rapidly diluted into the aqueous environment. DMSO was added to control assays lacking a test compound. Primary screen interactions were performed in polypropylene 384-well plates in a final volume of 34 μt, while Kd determinations were performed in polystyrene 96-well plates in a final volume of 135 pt. […] The kinase concentration in the eluates was measured by quantitative PCR. Each kinase was tested individually against each compound. Kds were determined using eleven serial threefold dilutions. A selectivity score, which is a quantitative measure of selectivity of a compound against a panel of enzymes, may be calculated for a compound by dividing the number of enzymes for which a compound meets a set criteria, (for example, a binding constant of 100 nM or less), by the total number of enzymes tested. […] (Note, for those compounds tested in a larger kinase panel, as indicated by an asterisk (*) next to the S35 score, the divisor is 321 (i.e. the larger panel contains 321 distinct kinases, excluding mutant variants.)).
Assay [2] concerns the target T1, RAF kinases (Homo sapiens, UniProt P04049). Put plainly: biochemical.
For assay [3], the target named is T2, RAF kinases (Homo sapiens, UniProt P15056). The assay can be described thus: biochemical.
T2 sequence (P15056 whole entry): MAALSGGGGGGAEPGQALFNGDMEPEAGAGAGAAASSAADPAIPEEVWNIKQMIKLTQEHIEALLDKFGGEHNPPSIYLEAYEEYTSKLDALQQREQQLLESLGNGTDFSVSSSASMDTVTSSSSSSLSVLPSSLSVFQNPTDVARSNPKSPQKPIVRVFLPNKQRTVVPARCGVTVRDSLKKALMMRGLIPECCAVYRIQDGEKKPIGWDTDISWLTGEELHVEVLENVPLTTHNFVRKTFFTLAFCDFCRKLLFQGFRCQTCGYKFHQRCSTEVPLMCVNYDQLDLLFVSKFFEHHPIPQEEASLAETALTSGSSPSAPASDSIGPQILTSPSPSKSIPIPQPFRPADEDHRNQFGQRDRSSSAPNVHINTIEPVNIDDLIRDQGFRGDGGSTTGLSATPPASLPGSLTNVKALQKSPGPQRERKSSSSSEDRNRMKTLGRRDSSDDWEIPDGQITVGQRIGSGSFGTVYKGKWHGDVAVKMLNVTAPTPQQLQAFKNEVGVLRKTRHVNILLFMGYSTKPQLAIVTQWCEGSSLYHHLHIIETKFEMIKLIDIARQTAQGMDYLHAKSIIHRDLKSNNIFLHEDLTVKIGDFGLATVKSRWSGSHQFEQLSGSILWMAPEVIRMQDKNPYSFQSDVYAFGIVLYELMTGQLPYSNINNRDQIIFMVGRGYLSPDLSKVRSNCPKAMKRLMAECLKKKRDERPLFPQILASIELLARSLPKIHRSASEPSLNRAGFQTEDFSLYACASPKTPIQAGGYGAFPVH
Assay [4] addresses T3, RAF kinases (Homo sapiens, UniProt P15056, V600E). The settings on record: read-out: BRAF V600E Kd; BRAF V600E.
Assay [5] relates to MEK1 phosphorylation in the A375 human melanoma cell line. The assay can be described thus: cells. Conditions: A-375, read-out: pMEK IC50.
For a further assay, the system named is A375 cells. Put plainly: cells. The settings on record: Homo sapiens, A-375, read-out: A375 Viability EC50.
Assay [6] deals with T3, RAF kinases. Put plainly: biochemical.
Assay [7] has as its target T1, RAF kinases. Conditions: read-out: RAF1 Kd; RAF1.
The target in assay [8] is T2, RAF kinases. Conditions: read-out: BRAF WT Kd; BRAF WT.
The mark [9] stands for this setting: no asterisk: panel of 290 distinct kinases.
Where [10] appears, read: asterisk: panel of 321 distinct kinases.

T1 sequence (P04049 whole entry): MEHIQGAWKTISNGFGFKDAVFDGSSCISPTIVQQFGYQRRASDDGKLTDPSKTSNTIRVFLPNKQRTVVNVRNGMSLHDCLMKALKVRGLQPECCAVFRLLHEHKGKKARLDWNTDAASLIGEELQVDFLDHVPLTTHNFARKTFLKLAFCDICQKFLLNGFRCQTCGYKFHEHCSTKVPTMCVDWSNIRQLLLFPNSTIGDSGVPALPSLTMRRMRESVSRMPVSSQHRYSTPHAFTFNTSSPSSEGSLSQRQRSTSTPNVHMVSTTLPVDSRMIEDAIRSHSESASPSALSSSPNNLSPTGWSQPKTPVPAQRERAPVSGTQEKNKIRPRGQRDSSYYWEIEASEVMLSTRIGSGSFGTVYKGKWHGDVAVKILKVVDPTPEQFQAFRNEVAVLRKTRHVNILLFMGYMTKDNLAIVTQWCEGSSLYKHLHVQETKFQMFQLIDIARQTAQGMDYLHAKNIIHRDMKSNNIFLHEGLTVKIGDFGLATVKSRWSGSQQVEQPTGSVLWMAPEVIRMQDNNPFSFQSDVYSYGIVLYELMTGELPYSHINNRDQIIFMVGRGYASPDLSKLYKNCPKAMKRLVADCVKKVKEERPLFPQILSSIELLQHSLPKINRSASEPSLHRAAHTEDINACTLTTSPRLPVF
T3 sequence (P15056 whole entry V600E): as the sequence (P15056 whole entry) above, with V600E counted along it
Experimental for A375 cells: The following day, the medium was replaced with 0.5% FBS in M3 for overnight incubation. […] The cells were incubated with compound or control for 72 hours at 37° C. under 10% CO2. Following incubation, Cell Titer Blue reagent (Promega) was added to each well containing compounds or controls, and then incubated for 3 hours at 37° C. under 10% CO2. Proliferation was measured by fluorescence with excitation at 560 nm and emission at 590 nm using SoftMax Pro.

Regarding `COc1cc(OC2CCOCC2)c2c(Sc3cccc(NC(=O)Nc4cc(C(C)(C)C)on4)c3)ncnc2c1`, the S35 entry in assay [1] (setting [9]) is “C (0.20 < C ≦ 0.40)”.

A word on the Kd: it is the free concentration of one partner at which half of the binding sites on the other are occupied at equilibrium, for simple one-to-one binding. The IC50 is the concentration that inhibits the measured activity by half. In the case of `COc1cc2ncnc(Oc3cccc(NC(=O)Nc4cc(C(C)(C)C)nn4-c4ccncc4)c3)c2cc1OC` [Ex336, 1-(3-tert-butyl-1-(pyridin-4-yl)-1H-pyrazol-5-yl)-3-(3-(6,7-dimethoxyquinazolin-4-yloxy)phenyl)urea], the Kd on RAF kinases [2] was 0.5 to 1 µM; on RAF kinases [3] it was 0.5 to 1 µM; on RAF kinases [4], below 0.25 µM. In [1] (setting [9]), the S35 entry was “D (D > 0.40)”. Besides, in [5], the IC50 was below 0.25 µM.

As usually defined, the EC50 is the concentration that produces a half-maximal response. Turning to `COc1cc2ncnc(Sc3cccc(NC(=O)Nc4cc(C(F)(F)F)n(-c5ccccc5)n4)c3)c2cc1OC` [Ex 170, 1-[3-(6,7-dimethoxyquinazolin-4-ylthio)phenyl]-3-[1-phenyl-5-(trifluoromethyl)-1H-pyrazol-3-yl]urea], the S35 entry in [1] (setting [10]) is reported as “B* (0.10 < B ≦ 0.20)”. The EC50 in the assay with A375 cells lay within 0.25 to 0.5 µM. Also, the IC50 in assay [5] is 0.25 to 0.5 µM.

With `COc1cc2ncnc(Sc3cccc(NC(=O)Nc4cc(C(F)(F)F)n(C)n4)c3)c2cc1OC` [Ex 194, 1-[3-(6,7-dimethoxyquinazolin-4-ylthio)phenyl]-3-[1-methyl-5-(trifluoromethyl)-1H-pyrazol-3-yl]urea], the S35 entry in assay [1] (setting [10]) is recorded as “C* (0.20 < C ≦ 0.40)”. Further, in the assay with A375 cells, the half-maximal effective concentration (EC50) lay within 0.5 to 1 µM. The half-maximal inhibitory concentration (IC50) in assay [5] fell in the range of 0.25 to 0.5 µM.

For the compound `COCCOc1cc2ncnc(Sc3cccc(NC(=O)Nc4ccc(C(F)(F)F)c(OC)c4)c3)c2cc1OC` [Ex 233, 1-(3-methoxy-4-(trifluoromethyl)phenyl)-3-(3-(6-methoxy-7-(2-methoxyethoxy)quinazolin-4-ylthio)phenyl)urea], the dissociation constant (Kd) on RAF kinases [6] was 0.5 to 1 µM; on RAF kinases [7] it was above 1 µM; at RAF kinases [8], above 1 µM. In the assay on A375 cells, the half-maximal effective concentration (EC50) is above 1 µM. Besides, the half-maximal inhibitory concentration (IC50) in assay [5] was above 1 µM.

As to `CCOC(=O)Cn1nc(C(C)(C)C)cc1NC(=O)Nc1cccc(Sc2ncnc3cc(OCCOC)c(OC)cc23)c1` [Ex 237, ethyl 2-[3-tert-butyl-5-(3-{3-[6-methoxy-7-(2-methoxyethoxy)quinazolin-4-ylthio]phenyl}ureido)-1H-pyrazol-1-yl]acetate], the values for the Kd on RAF kinases [6], on RAF kinases [7] and on RAF kinases [8] were 0.5 to 1 µM, above 1 µM and above 1 µM, respectively. In the assay on A375 cells, the EC50 is above 1 µM. Also, the concentration for half-maximal inhibition (IC50) in [5] fell in the range of 0.5 to 1 µM.

Take `COc1cc2c(Sc3cccc(NC(=O)Nc4cc(C(C)(C)F)no4)c3)ncnc2cc1OCCN1CCOCC1` [Ex 248, 1-(3-(2-fluoropropan-2-yl)isoxazol-5-yl)-3-(3-(6-methoxy-7-(2-morpholinoethoxy)quinazolin-4-ylthio)phenyl)urea]: the Kd on RAF kinases [2] was 0.25 to 0.5 µM; at RAF kinases [3] it was 0.25 to 0.5 µM; on RAF kinases [4] it was below 0.25 µM. Further, the S35 entry in assay [1] (setting [10]) is “C* (0.20 < C ≦ 0.40)”. Further, the EC50 in the assay on A375 cells is above 1 µM. The concentration for half-maximal inhibition (IC50) in assay [5] lay in the range of 0.25 to 0.5 µM.

On to `COc1cc2ncnc(Oc3cc(NC(=O)Nc4cc(C(F)(F)F)nn4-c4ccccc4)c(F)cc3F)c2cc1OC` [Ex 271, 1-(5-(6,7-dimethoxyquinazolin-4-yloxy)-2,4-difluorophenyl)-3-(1-phenyl-3-(trifluoromethyl)-1H-pyrazol-5-yl)urea], for which the Kd on RAF kinases [6] was 0.25 to 0.5 µM; on RAF kinases [7] it was above 1 µM; on RAF kinases [8], above 1 µM. In addition, in the assay on A375 cells, the EC50 is 0.25 to 0.5 µM. In addition, in assay [5], the half-inhibitory concentration (IC50) was below 0.25 µM.

As for `COCCOc1cc2ncnc(Sc3cccc(NC(=O)Nc4cc(C(C)(C)C)nn4-c4ccc(C)cc4C)c3)c2cc1OC` [Ex 283, 1-(3-tert-butyl-1-(2,4-dimethylphenyl)-1H-pyrazol-5-yl)-3-(3-(6-methoxy-7-(2-methoxyethoxy)quinazolin-4-ylthio)phenyl)urea], the dissociation constant (Kd) at RAF kinases [6] was 0.5 to 1 µM; on RAF kinases [7], above 1 µM; at RAF kinases [8] it was above 1 µM. The concentration giving a half-maximal response (EC50) with A375 cells was above 1 µM. Moreover, the half-inhibitory concentration (IC50) in [5] was below 0.25 µM.

For the compound `COc1cc2ncnc(Oc3ccc(Cl)c(NC(=O)Nc4cc(C(F)(F)F)nn4-c4ccccc4)c3)c2cc1OC` [Ex 300, 1-(2-chloro-5-(6,7-dimethoxyquinazolin-4-yloxy)phenyl)-3-(1-phenyl-3-(trifluoromethyl)-1H-pyrazol-5-yl)urea], the dissociation constant (Kd) at RAF kinases [6] is 0.5 to 1 µM; at RAF kinases [7], above 1 µM; at RAF kinases [8], above 1 µM. In addition, the EC50 in the assay on A375 cells is above 1 µM. Besides, the IC50 in [5] was 0.25 to 0.5 µM.

Consider `COc1cc2ncnc(Oc3cccc(NC(=O)Nc4cc(C(C)(C)CN5CCOCC5)on4)c3)c2cc1OC` [Ex 302, 1-(3-(6,7-dimethoxyquinazolin-4-yloxy)phenyl)-3-(5-(2-methyl-1-morpholinopropan-2-yl)isoxazol-3-yl)urea], for which the Kd was 0.25 to 0.5 µM on RAF kinases [6], above 1 µM on RAF kinases [7] and above 1 µM on RAF kinases [8]. In the assay on A375 cells, the EC50 is above 1 µM. Also, the half-inhibitory concentration (IC50) in assay [5] was above 1 µM.

`COc1cc2ncnc(Oc3cccc(NC(=O)Nc4cc(C(F)(F)C(F)(F)F)nn4-c4ccccc4)c3)c2cc1OC` [Ex 304, 1-(3-(6,7-dimethoxyquinazolin-4-yloxy)phenyl)-3-(3-(perfluoroethyl)-1-phenyl-1H-pyrazol-5-yl)urea]: the dissociation constant (Kd) on RAF kinases [6] is 0.25 to 0.5 µM; at RAF kinases [7] it was above 1 µM; on RAF kinases [8], above 1 µM. The EC50 in the assay with A375 cells was below 0.25 µM. For the same compound, in assay [5], the IC50 was in the range of 0.25 to 0.5 µM.

With `COc1cc2ncnc(Oc3cccc(NC(=O)Nc4cc(C(C)(C)C)nn4-c4cccnc4C)c3)c2cc1OC` [Ex 305, 1-(3-tert-butyl-1-(2-methylpyridin-3-yl)-1H-pyrazol-5-yl)-3-(3-(6,7-dimethoxyquinazolin-4-yloxy)phenyl)urea], the equilibrium dissociation constant (Kd) on RAF kinases [2] is 0.25 to 0.5 µM; at RAF kinases [3], 0.5 to 1 µM; at RAF kinases [4], below 0.25 µM. Also, the S35 entry in assay [1] (setting [9]) is recorded as “D (D > 0.40)”. For the same compound, the 50% effective concentration (EC50) in the assay with A375 cells was below 0.25 µM. The IC50 in assay [5] is below 0.25 µM.

For `COc1cc2ncnc(Oc3cccc(NC(=O)Nc4cc(C(C)(C)C#N)nn4-c4ccccc4)c3)c2cc1OC` [Ex 308, 1-(3-(2-cyanopropan-2-yl)-1-phenyl-1H-pyrazol-5-yl)-3-(3-(6,7-dimethoxyquinazolin-4-yloxy)phenyl)urea], the results for the Kd at RAF kinases [2], at RAF kinases [3] and at RAF kinases [4] were 0.25 to 0.5 µM, 0.25 to 0.5 µM and below 0.25 µM, respectively. Also, the S35 entry in [1] (setting [9]) is reported as “D (D > 0.40)”. Further, in the assay with A375 cells, the 50% effective concentration (EC50) was in the range of 0.25 to 0.5 µM. The half-maximal inhibitory concentration (IC50) in assay [5] was below 0.25 µM.

Take `COc1cc2ncnc(Oc3cccc(NC(=O)Nc4cc(C(C)(C)C)nn4-c4cccnc4)c3)c2cc1OC` [Ex 322, 1-(3-tert-butyl-1-(pyridin-3-yl)-1H-pyrazol-5-yl)-3-(3-(6,7-dimethoxyquinazolin-4-yloxy)phenyl)urea]: the dissociation constant (Kd) is 0.25 to 0.5 µM at RAF kinases [2], 0.25 to 0.5 µM on RAF kinases [3] and below 0.25 µM on RAF kinases [4]. The S35 entry in [1] (setting [9]) was “D (D > 0.40)”. In addition, the IC50 in [5] was below 0.25 µM.

On to `COc1cc2ncnc(Oc3cccc(NC(=O)Nc4cc(C(C)(C)C)nn4-c4cncc(F)c4)c3)c2cc1OC` [Ex 326, 1-(3-tert-butyl-1-(5-fluoropyridin-3-yl)-1H-pyrazol-5-yl)-3-(3-(6,7-dimethoxyquinazolin-4-yloxy)phenyl)urea], for which the Kd on RAF kinases [2] was 0.5 to 1 µM; on RAF kinases [3], 0.5 to 1 µM; on RAF kinases [4] it was below 0.25 µM. Further, the S35 entry in [1] (setting [9]) was “D (D > 0.40)”. Also, the IC50 in assay [5] was below 0.25 µM.

For the compound `COc1cc2ncnc(Sc3cccc(NC(=O)Nc4cc(C(C)(C)C)nn4-c4cncc(F)c4)c3)c2cc1OC` [Ex 327, 1-(3-tert-butyl-1-(5-fluoropyridin-3-yl)-1H-pyrazol-5-yl)-3-(3-(6,7-dimethoxyquinazolin-4-ylthio)phenyl)urea], the results for the Kd at RAF kinases [2], at RAF kinases [3] and at RAF kinases [4] were 0.5 to 1 µM, 0.5 to 1 µM and below 0.25 µM, respectively. The S35 result in assay [1] (setting [9]) is on record as “D (D > 0.40)”. Further, the IC50 in assay [5] was below 0.25 µM.

As for `COc1cc2ncnc(Oc3cccc(NC(=O)Nc4cc(C(C)(C)C)nn4-c4ccc(C#N)cc4)c3)c2cc1OC` [Ex 328, 1-(3-tert-butyl-1-(4-cyanophenyl)-1H-pyrazol-5-yl)-3-(3-(6,7-dimethoxyquinazolin-4-yloxy)phenyl)urea], the Kd on RAF kinases [2] is 0.25 to 0.5 µM; at RAF kinases [3] it was 0.25 to 0.5 µM; at RAF kinases [4] it was below 0.25 µM. Moreover, the S35 result in assay [1] (setting [9]) was “D (D > 0.40)”. In assay [5], the IC50 was below 0.25 µM.

Turning to `COc1cc2ncnc(Sc3cccc(NC(=O)Nc4cc(C(C)(C)C)nn4CC(C)C)c3)c2cc1OC` [Ex 333, 1-(3-tert-butyl-1-isobutyl-1H-pyrazol-5-yl)-3-(3-(6,7-dimethoxyquinazolin-4-ylthio)phenyl)urea], the Kd at RAF kinases [2] was 0.25 to 0.5 µM; on RAF kinases [3] it was 0.25 to 0.5 µM; on RAF kinases [4], below 0.25 µM. In addition, the S35 result in assay [1] (setting [9]) is recorded as “C (0.20 < C ≦ 0.40)”. The IC50 in [5] lay in the range of 0.5 to 1 µM.

As for `COc1cc2ncnc(Sc3cccc(NC(=O)Nc4cc(C(C)(C)C)nn4-c4ccncc4)c3)c2cc1OC` [Ex 337, 1-(3-tert-butyl-1-(pyridin-4-yl)-1H-pyrazol-5-yl)-3-(3-(6,7-dimethoxyquinazolin-4-ylthio)phenyl)urea], the Kd at RAF kinases [2] was 0.5 to 1 µM; on RAF kinases [3] it was 0.5 to 1 µM; at RAF kinases [4], below 0.25 µM. For the same compound, the S35 result in [1] (setting [9]) is recorded as “D (D > 0.40)”. In addition, the concentration for half-maximal inhibition (IC50) in assay [5] was below 0.25 µM.
